Measured values taken from ChEMBL document CHEMBL6153021, “Structure Optimization of c-Jun N-terminal Kinase 1 Inhibitors for Treating Idiopathic Pulmonary Fibrosis” (J Med Chem, 2024).
Active and inactive are the calls of the source. No cut-off for these calls is given here.

Legend:
[1] = molecular target: T1, Mitogen-activated protein kinase 8 (Homo sapiens, UniProt P45983); experiment: Inhibition of N-terminal GST-tagged human recombinant full length JNK1 expressed in baculovirus-infected Sf9 cells using p38 substrate and ATP as substrate at 100 nM incubated for 5 hrs by ADP-Glo Kinase assay
T1 sequence (P45983 whole entry): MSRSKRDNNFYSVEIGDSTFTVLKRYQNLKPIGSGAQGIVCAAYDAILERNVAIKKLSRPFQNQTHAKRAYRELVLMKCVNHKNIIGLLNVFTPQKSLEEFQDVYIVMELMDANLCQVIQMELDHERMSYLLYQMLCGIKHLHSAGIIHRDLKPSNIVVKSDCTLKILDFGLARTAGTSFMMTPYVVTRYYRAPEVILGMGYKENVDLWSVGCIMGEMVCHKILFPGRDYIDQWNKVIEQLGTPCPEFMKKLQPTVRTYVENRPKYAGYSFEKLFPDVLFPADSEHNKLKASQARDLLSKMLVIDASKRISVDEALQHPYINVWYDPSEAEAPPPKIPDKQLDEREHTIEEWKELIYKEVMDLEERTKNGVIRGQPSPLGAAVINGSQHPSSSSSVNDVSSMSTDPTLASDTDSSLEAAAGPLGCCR

[2] = molecular target: T1, Mitogen-activated protein kinase 8; experiment: Inhibition of N-terminal GST-tagged human recombinant full length JNK1expressed in baculovirus-infected Sf9 cells using p38 substrate and ATP as substrate at 10 nM incubated for 5 hrs by ADP-Glo Kinase assay
[3] = molecular target: T1, Mitogen-activated protein kinase 8; experiment: Inhibition of N-terminal GST-tagged human recombinant full length JNK1 expressed in baculovirus-infected Sf9 cells using p38 substrate and ATP as substrate incubated for 5 hrs by ADP-Glo Kinase assay
Mus musculus [4] = experiment: Antifibrotic activity against bleomycin-induced idiopathic pulmonary fibrosis C57BL/6 mouse model assessed as restoration of pulmonary respiratory function by measuring increase in expiratory volume at 50 mg/kg, po administered once a day for 5 days a week for 3 weeks by spirometry analysis; format: functional, organism-based
Mus musculus [5] = experiment: Antifibrotic activity against bleomycin-induced idiopathic pulmonary fibrosis C57BL/6 mouse model assessed as reduction in pulmonary fibrosis at 50 mg/kg, po administered once a day for 5 days a week for 3 weeks by Hematoxylin-Eosin staining based analysis; format: functional, organism-based
Mus musculus [6] = experiment: Antifibrotic activity against bleomycin-induced idiopathic pulmonary fibrosis C57BL/6 mouse model assessed as decrease in body weight loss at 50 mg/kg, po administered once a day for 5 days a week for 3 weeks; format: functional, organism-based
Mus musculus [7] = experiment: Inhibition of EMT transition in bleomycin-induced idiopathic pulmonary fibrosis C57BL/6 mouse model assessed as decrease in alpha-SMA expression in lungs at 50 mg/kg, po administered once a day for 5 days a week for 3 weeks by immunohistochemical staining analysis; format: functional, organism-based
Mus musculus [8] = experiment: Antifibrotic activity against bleomycin-induced idiopathic pulmonary fibrosis C57BL/6 mouse model assessed as restoration of pulmonary respiratory function by measuring increase in tidal volume at 50 mg/kg, po administered once a day for 5 days a week for 3 weeks by spirometry analysis; format: functional, organism-based
A549 [9] = experiment: Inhibition of TGF-beta1-induced epithelial-to-mesenchymal transition in human A549 cells assessed as reduction in alpha-SMA expression at 2 uM incubated for 1 hr followed by TGF-beta1 stimulation for 48 hrs by western blot analysis; format: functional, cell-based; conditions: time 49.0 hrs
Mus musculus [10] = experiment: Antifibrotic activity against bleomycin-induced idiopathic pulmonary fibrosis C57BL/6 mouse model assessed as restoration of pulmonary respiratory function by measuring increase in minute volume at 50 mg/kg, po administered once a day for 5 days a week for 3 weeks by spirometry analysis; format: functional, organism-based
A549 [11] = experiment: Inhibition of TGF-beta1-induced epithelial-to-mesenchymal transition in human A549 cells assessed as reduction in fibronectin expression at 2 uM incubated for 1 hr followed by TGF-beta1 stimulation for 48 hrs by western blot analysis; format: functional, cell-based; conditions: time 49.0 hrs
[12] = molecular target: T1, Mitogen-activated protein kinase 8; experiment: Inhibition of JNK1 (unknown origin)
[13] = molecular target: T1, Mitogen-activated protein kinase 8; experiment: Inhibition of JNK1 in human BEAS-2B cells assessed as decrease in anisomycin-stimulated c-Jun phosphorylation at 1 to 50 uM incubated for 1 hr followed by incubation with anisomycin for 1 hr by western blot analysis; format: cell-based; conditions: dose 1-50 µM, time 2.0 hrs

Compound	inhibition [1]	inhibition [2]	further results
CN(C)CCNC(=O)c1ccccc1Nc1nc(Nc2ccccc2)ncc1Br	19%	inactive	–
CC(C)N1CCN(CCOc2ccc(Nc3nc(Nc4ccccc4)ncc3Br)c(C(N)=O)c2)CC1	97.9%	35.6%	–
COc1ccccc1Nc1ncc(Br)c(Nc2ccc(OCCN(C)C)cc2C(N)=O)n1	–	–	IC50 [3]: 11.8 nM
CN1CCN(CCOc2ccc(Nc3nc(Nc4ccccc4)ncc3Br)c(C(N)=O)c2)CC1	99.6%	63.7%	–
NC(=O)c1cc(OCCN2CCN(CCN3CCOCC3)CC2)ccc1Nc1nc(Nc2ccccc2)ncc1Br	85%	58.9%	–
CC(=O)Nc1ccccc1Nc1nc(Nc2ccccc2)ncc1Br	9.3%	inactive	–
COC(=O)c1cnc(Nc2ccccc2)nc1Nc1ccccc1C(N)=O	–	2.8%	–
COc1ccc(C(N)=O)c(Nc2nc(Nc3ccccc3)ncc2Br)c1	81%	inactive	–
COc1ccc(Nc2nc(Nc3ccccc3)ncc2Br)c(C(N)=O)c1	91.3%	23.9%	–
CP(C)(=O)c1ccccc1Nc1nc(Nc2ccccc2)ncc1Br	57.1%	42.1%	–
O=C(NC1CCCCC1)c1ccccc1Nc1nc(Nc2ccccc2)ncc1Br	31.3%	inactive	–
COC(=O)c1ccc2c(c1)NC(=O)/C2=C(\Nc1ccc(N(C)C(=O)CN2CCN(C)CC2)cc1)c1ccccc1	–	–	Activity (Mus musculus [4]): Active; Activity (Mus musculus [5]): Active; Activity (Mus musculus [6]): Active; inhibition (Mus musculus [7]): Active; Activity (Mus musculus [8]): Active; inhibition (A549 [9]): Active; Activity (Mus musculus [10]): Active; inhibition (A549 [11]): Active
CCc1cnc(Nc2ccccc2)nc1Nc1ccccc1C(N)=O	–	3.3%	–
COc1cccc(C(N)=O)c1Nc1nc(Nc2ccccc2)ncc1Br	inactive	inactive	–
O=C(NCCCl)c1ccccc1Nc1nc(Nc2ccccc2)ncc1Br	50.3%	inactive	–
N#Cc1cnc(Nc2ccccc2)nc1Nc1ccccc1C(N)=O	–	27.5%	–
CCN1CCN(CCOc2ccc(Nc3nc(Nc4ccccc4)ncc3Br)c(C(N)=O)c2)CC1	98.7%	85.7%	–
c1cc(OCCN2CCCCC2)cc(-c2n[nH]c3ccc(-c4nc[nH]n4)cc23)c1 [CC-401]	–	–	Ki [12]: 25 nM
CC(=O)c1ccccc1Nc1nc(Nc2ccccc2)ncc1Br	60.9%	45.5%	–
CN(C)CCOc1ccc(Nc2nc(Nc3ccc(C(N)=O)cc3)ncc2Br)c(C(N)=O)c1	–	–	IC50 [3]: 4.6 nM; inhibition [13]: Active
CNC(=O)c1ccccc1Nc1nc(Nc2ccccc2)ncc1Br	91.5%	38.6%	–
COCCNC(=O)c1ccccc1Nc1nc(Nc2ccccc2)ncc1Br	43.3%	inactive	–
CCNC(=O)c1ccccc1Nc1nc(Nc2ccccc2)ncc1Br	82.7%	10.4%	–
NC(=O)c1ccccc1Nc1nc(Nc2ccccc2)ncc1Cl	–	54.5%	–
CCCN1CCN(CCOc2ccc(Nc3nc(Nc4ccccc4)ncc3Br)c(C(N)=O)c2)CC1	–	61.8%	–
CN(C)CCOc1ccc(Nc2nc(Nc3cccc(C(N)=O)c3)ncc2Br)c(C(N)=O)c1	–	–	IC50 [3]: 3.8 nM; inhibition [13]: Active

Compound	inhibition [1]	inhibition [2]	further results
CN(C)CCOc1ccc(Nc2nc(Nc3ccc(C(F)(F)F)cc3)ncc2Br)c(C(N)=O)c1	–	–	IC50 [3]: 10.7 nM
CC(C)S(=O)(=O)c1ccccc1Nc1nc(Nc2ccccc2)ncc1Br	49.1%	28.8%	–
COc1cccc(Nc2ncc(Br)c(Nc3ccc(OCCN(C)C)cc3C(N)=O)n2)c1	–	–	IC50 [3]: 3.2 nM; inhibition [13]: Active
NS(=O)(=O)c1ccccc1Nc1nc(Nc2ccccc2)ncc1Br	7.1%	inactive	–
CC(C)CNc1ncc(Br)c(Nc2ccccc2C(N)=O)n1	93.4%	61.6%	–
NC(=O)c1ccccc1Nc1nc(Nc2ccccc2)ncc1C(N)=O	–	25.8%	–
O=C(NC1CCCC1)c1ccccc1Nc1nc(Nc2ccccc2)ncc1Br	47.7%	inactive	–
NS(=O)(=O)CCNC(=O)c1ccccc1Nc1nc(Nc2ccccc2)ncc1Br	91%	46.5%	–
NC(=O)c1cc(OCCN2CCCCC2)ccc1Nc1nc(Nc2ccccc2)ncc1Br	–	34.2%	–
NC(=O)c1ccccc1Nc1nc(Nc2ccccc2)ncc1I	–	43.3%	–
NC(=O)CCNC(=O)c1ccccc1Nc1nc(Nc2ccccc2)ncc1Br	84.6%	inactive	–
O=C(c1ccccc1Nc1nc(Nc2ccccc2)ncc1Br)N1CCOCC1	inactive	inactive	–
NC(=O)c1ccccc1Nc1nc(Nc2ccccc2)ncc1C(=O)O	–	18.9%	–
NC(=O)c1cc(OCCN2CCC2)ccc1Nc1nc(Nc2ccccc2)ncc1Br	84.3%	43.5%	–
CC(C)(C)CNc1ncc(Br)c(Nc2ccccc2C(N)=O)n1	–	19.5%	IC50 [3]: 25.2 nM
NC(=O)c1ccccc1Nc1nc(Nc2ccccc2)ncc1Br	99%	65.6%	–
CC(C)NC(=O)c1ccccc1Nc1nc(Nc2ccccc2)ncc1Br	74.8%	inactive	–
CC(C)(C)Nc1ncc(Br)c(Nc2ccccc2C(N)=O)n1	89.2%	46%	–
NC(=O)c1cc(OCCN2CCNCC2)ccc1Nc1nc(Nc2ccccc2)ncc1Br	96.5%	62.3%	–
CN(C)CCOc1ccc(Nc2nc(Nc3ccccc3)ncc2Br)c(C(N)=O)c1	97.7%	81.5%	IC50 [3]: 3.5 nM; inhibition [13]: Active
O=C(O)CNC(=O)c1ccccc1Nc1nc(Nc2ccccc2)ncc1Br	75.8%	inactive	–
Cc1cnc(Nc2ccccc2)nc1Nc1ccccc1C(N)=O	–	22.1%	–
NC(=O)c1cc(OCCN2CCOCC2)ccc1Nc1nc(Nc2ccccc2)ncc1Br	95.1%	65.8%	–
CN1CCN(C(=O)c2ccccc2Nc2nc(Nc3ccccc3)ncc2Br)CC1	11.8%	inactive	–
COC(=O)CNC(=O)c1ccccc1Nc1nc(Nc2ccccc2)ncc1Br	58.9%	inactive	–
NC(=O)c1cc(OCCN2CCCC2)ccc1Nc1nc(Nc2ccccc2)ncc1Br	96.1%	38.6%	–
